“And” between values parts separate entries of the source, which are not always exact repeats. Identical values can stand only once.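 All cell lines were grown in 96-well plates and treated with compound for 48 hours. At the GI50, growth is halved. TGI marks complete inhibition of growth.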
Tests used:
Assay in all cases: inhibition of tumour cell growth, NCI panel, 48 h
[1] = test system: MDA-N
[2] = test system: OVCAR-5 ovarian
[3] = test system: TK-10 renal
[4] = test system: MCF7 breast
[5] = test system: HCT-15 colon
[6] = test system: MDA-MB-435
[7] = test system: M14 melanoma
[8] = test system: SF-295 CNS
[9] = test system: T-47D breast
[10] = test system: UACC-257 melanoma
[11] = test system: HOP-92 NSCLC

SMILES	TGI [1] [µM]	TGI [2] [µM]	TGI [3]	TGI [4] [µM]	TGI [5]	TGI [6] [µM]	TGI [7]	TGI [8] [µM]	TGI [9]	TGI [10] [µM]	GI50 [11] [µM]	TGI [11]	GI50 [5] [µM]	GI50 [6] [µM]	GI50 [8]	GI50 [9] [µM]	GI50 [3] [µM]	GI50 [4] [µM]
CCN1CCC(O)(c2ccc([N+](=O)[O-])cc2)C(C(=O)c2ccc([N+](=O)[O-])cc2)C1 (centres undefined)	39.1	> 100	32.4 µM	31.4	52.9 µM	43.5	42.1 µM	> 100	46.4 µM	33.7								
COc1cc([C@@H]2c3cc4c(cc3[C@@H](Nc3ccc(NC(=O)c5cc([N+](=O)[O-])cn5C)cc3)[C@H]3COC(=O)[C@H]23)OCO4)cc(OC)c1O		10.4	6.15 µM and 2.95 µM	> 31.6	1.54 µM and 2.48 µM	> 100	2.47 µM and 4.94 µM		28.8 µM and > 24.4 µM	> 65.5	0.0549	39.9 µM and 19.7 µM	0.192	0.415	0.0513 µM and 0.0793 µM	0.0115		
Cc1cc(C)c(-c2no/c(=N\S(=O)(=O)c3ccc(Cl)cc3)o2)c(C)c1	> 100	> 100	> 100 µM	56.1	> 100 µM	> 100	> 100 µM	> 100	> 100 µM	> 100								
O=C1CC(c2cccc(Cl)c2)Nc2ccc(N3CCCC3)cc21 (centres undefined)			> 100 µM	> 100	> 100 µM		> 100 µM	> 100	> 100 µM	> 100	0.135	> 100 µM	0.0329				> 100	0.0649
COC(=O)[C@@H]1CO[C@H](C(C)(C)C)N1C(=O)N1C=CC(=O)C[C@H]1C	> 100	> 100	> 100 µM	> 100		> 100	> 100 µM	> 100	> 100 µM	> 100		> 100 µM						
COc1cc(C2c3cc4c(cc3OC(NN)C2C)OCO4)cc(OC)c1O (centres undefined)		> 100	90.6 µM	> 100	34.2 µM		> 100 µM	14.7	31 µM	93		> 100 µM						
NS(=O)(=O)c1nnc(NC(=S)NC(=O)Nc2ccc(Cl)c(Cl)c2)s1		67.7	> 100 µM	> 100	48.9 µM	41.9	36.1 µM	62.1		65.1		36.2 µM						
COc1ccc2nc3cc(Cl)ccc3c(NC(C)CCCN(CCCl)CCCl)c2c1 (centres undefined)		8	6.04 µM		6.56 µM		2.78 µM	10.6		14.9		3.62 µM						
CSc1nncc(-c2cc3c(c(SC)n2)CCCC3)n1	> 100	> 100	> 100 µM		> 100 µM	> 100	> 100 µM	> 100		> 100								
O=S(=O)(/N=C(\NO)Nc1ccc(Cl)cc1)c1cc(C(F)(F)F)cc(C(F)(F)F)c1	36.1	30.1	37.6 µM		38.7 µM	37.6	32.1 µM	36.4	67.2 µM	42.4		30.3 µM						

Reference: PubChem BioAssay (NCI)
